{"source": "patent US20200197409A1", "about": "“HEPATITIS B VIRUS SURFACE ANTIGEN INHIBITOR” (FUJIAN COSUNTER PHARMACEUTICAL CO., LTD., priority 2017, published 2020)", "key": {"HBV-DNA": {"system": "HBV-DNA", "experiment": "HBV DNA content in HepG2.2.15 cells culture supernatant by real time-qPCR", "assay_type": "cell-based", "conditions": "supernatant on the 8th day", "method": "2.1 Cell Line: HepG2.2.15 Cells\n3.6 15 μL of the reaction mixture was added into each well of a 96-well PCR plate, followed by addition of 10 μL of sample DNA or HBV DNA standards into each well.\n3.7 PCR reaction conditions: heating at 95° C. for 10 minutes, then denaturation at 95° C. for 15 seconds, extension at 60° C. for 1 minute, a total of 40 cycles."}, "[1]": {"experiment": "Plasma protein binding rate, CD-1 mouse plasma", "assay_type": "in vitro ADME", "conditions": "plasma of CD-1 mouse, dialysis 4 hours at 37° C.", "method": "(§1) The protein binding rate of Embodiment 6 in the plasma of human, CD-1 mouse and SD rat was determined, 796 μL of blank plasma was taken from human, CD-1 mice and SD rats, and 4 μL of test compound working solution (400 μM) or warfarin working solution (400 μM) was added to achieve a final concentration of the test compound and the warfarin in plasma samples of 2 μM. The samples were mixed thoroughly. The final concentration of organic phase DMSO was 0.5%, 50 μL of the test compound and warfarin plasma sample were transferred into sample receiving plates (three parallels), and a relative volume of corresponding blank plasma or buffer was immediately added, ensuring that the final volume of each sample well was 100 μL, and the volume ratio of plasma to dialysis buffer was 1:1. 400 μL of stop solution was added to these samples, which was used as a T0 sample for the determination of recovery and stability. […] The protein binding rate and the recovery rate were calculated by the formulas: % Protein unbinding rate (%)=100*Drug concentration through the dialysis membrane/drug concentration not through the dialysate: Protein binding rate (%)=100-% protein unbinding rate: % Recovery=100*(Drug concentration through the dialysis membrane+Drug concentration not through the dialysate)/Total drug concentration before undialysis. Protein binding rate and recovery rate were calculated."}, "[2]": {"experiment": "Plasma protein binding rate, SD rat plasma", "assay_type": "in vitro ADME", "conditions": "plasma of SD rat, dialysis 4 hours at 37° C.", "method": "as §1"}, "[3]": {"experiment": "Microsomal metabolism stability, human", "assay_type": "in vitro ADME", "conditions": "human liver microsomes 0.5 mg/mL, 1 μM, NADPH, 37° C.", "method": "(§2) The microsomal metabolism stability of the test compound (Embodiment 6) in three species was determined. 1 μM test compound and microsomes (0.5 mg/mL) supplemented with NADPH regeneration system were incubated at 37° C. The positive controls were testosterone (3A4 substrate), propafenone (2D6 substrate) and diclofenac (2C9 substrate), respectively. The positive control and microsomes (0.5 mg/mL) supplemented with NADPH regeneration system were incubated at 37° C. Samples at different time points (0, 5, 10, 20, 30, and 60 minutes) were mixed directly with cold acetonitrile containing an internal standard to terminate the reaction. The compound and microsomes were incubated for 60 minutes without the NADPH regeneration system. One parallel was set at each time point (n=1). The samples were analyzed by LC/MS/MS. The concentration of the compound was indicated by the ratio of the peak area of the analyte to the peak area of the internal standard."}, "[4]": {"experiment": "Microsomal metabolism stability, mouse", "assay_type": "in vitro ADME", "conditions": "mouse liver microsomes 0.5 mg/mL, 1 μM, NADPH, 37° C.", "method": "as §2"}, "[5]": {"experiment": "Single-dose pharmacokinetic study on mouse", "assay_type": "in vivo, C57BL/6 mice"}, "[6]": {"experiment": "14-day pre-toxicology tolerance test on rat", "assay_type": "in vivo", "conditions": "once a day for 14 days, male rats", "method": "[table] A total of 21 animals in this experiment were randomly divided into 7 groups. The animals were orally administered with the test compounds once a day for 14 consecutive days, and the toxicity was evaluated. Animal necropsy and tissue would be taken from the fixative, repaired, dehydrated, embedded, sectioned, stained and microscopically examined. These tissues included the liver, heart and lung of all animals, and spleen, stomach, duodenum, jejunum, ileum, and kidney of partial animals."}}, "note": "Read-outs that look alike come from different tables or passages of the source.", "data": [{"smiles": "COCCCOc1cc2c(cc1OC)-c1cc(=O)c(C(=O)O)cn1[C@H](C(C)(C)C)CO2", "note": "[Embodiment 6]", "values": [{"measurement": "EC50", "setting": "HBV-DNA", "value": 2.55, "unit": "nM"}, {"measurement": "fraction unbound at 4 h, 2 μM", "setting": "[1]", "value": 0.498}, {"measurement": "fraction unbound at 4 h, 2 μM", "setting": "[2]", "value": 0.406}, {"measurement": "remaining ratio at T=60 min", "setting": "[3]", "value": 109.1, "unit": "%"}, {"measurement": "remaining ratio at T=60 min", "setting": "[4]", "value": 102.5, "unit": "%"}, {"measurement": "Apparent distribution volume", "setting": "[5]; IV: 1 mg/kg PO: 2 mg/kg", "value": 5.79, "unit": "L/kg"}, {"measurement": "Bioavailability", "setting": "[5]; IV: 1 mg/kg PO: 2 mg/kg", "value": 91.6, "unit": "%"}, {"measurement": "Highest concentration", "setting": "[5]; IV: 1 mg/kg PO: 2 mg/kg", "value": 1055, "unit": "nM"}, {"measurement": "half-life", "setting": "[5]; male, C57BL/6, plasma, IV: 1 mg/kg PO: 2 mg/kg", "value": 2.46, "unit": "h"}, {"measurement": "clearance", "setting": "[5]; male, C57BL/6, plasma, IV: 1 mg/kg PO: 2 mg/kg, read-out: Clearance rate", "value": 75, "unit": "mL/min/kg"}, {"measurement": "AUC(0-t)", "setting": "[5]; male, C57BL/6, plasma, IV: 1 mg/kg, read-out: AUC0-last (Intravenous injection)", "value": 0.502, "unit": "µM·h"}, {"measurement": "AUC(0-t)", "setting": "[5]; male, C57BL/6, plasma, PO: 2 mg/kg, read-out: AUC0-last (Oral)", "value": 0.876, "unit": "µM·h"}, {"measurement": "histopathological changes associated with the test compound", "setting": "[6]; high dose group (1000 mg/kg)", "value": "little or mild decrease of white pulp lymphocytes in the spleen"}, {"measurement": "histopathological changes associated with the test compound", "setting": "[6]; medium and low dose groups (300 and 100 mg/kg), heart, liver and lung examined", "value": "no histopathological changes associated with the test compound were observed"}]}]}
